Legend:
Format in all cases: in vivo
Eotetranychus hicoriae = experiment: Example D: spray test against pecan leaf scorch mite on pecan nut tree; details: 0.313 pounds a.i. per acre
Protocol: Pest: Eotetranychus Hicoriae
The compound of the formula (I) (240 SC) was tested at an application rate of 0.313 lb a.i. per acre in comparison with ACRAMIT (Bifenazate, 50 WP) at 0.50 pound of a.i. per acre.
The spray mixture (105 gallons per acre) was applied by means of a motor-operated hand-held sprayer.
The experiment was carried out with one tree per plot and four replication experiments.
The efficacy against the pecan leaf scorch mite was determined by counting the number of live mites on five leaves per tree 6 and 13 days after the application and subsequently calculated by means of the Abbott formula.

Tetranychus urticae [1] = experiment: Example C: spray test against spider mites (eggs and nymphs) on black walnut tree; details: 0.126 pounds a.i. per acre
Protocol: Pest: Tetranychus Urticae
The compound of the formula (I) (240 SC) was tested at a concentration of 2.02 ounces a.i. per 100 gallons (=0.126 pounds a.i. per acre) in comparison with PYRAMAT (Pyridaben, 75 WP) at an application rate of 0.125 pound a.i. per acre.
The spray mixture (100 gallons per acre) was applied by means of a motor-operated hand-held sprayer.
The test was carried out with one tree per plot and three replication experiments.
The efficacy against spider mites was calculated by counting the live eggs and nymphs on eight leaves per tree before and one, two and six weeks after the application and subsequently calculated using the formula of Henderson & Tilton.

Tetranychus urticae [2] = experiment: Example A: field spray test against spider mites on hops; details: 2000 l/ha
Protocol: Pest: Tetranychus Urticae Crop: Hops The compound of the formula (I) (240SC) was tested at a concentration of 0.0048% a.i. in comparison with cis-cyhalothrin (050EC) at 0.005% a.i. The compound of the formula (I) was used at an early stage of the infestation of the pest, while cis-cyhalothrin was applied when the infestation had progressed to a high level. The spray mixture (2000 l/ha) was applied using a knapsack sprayer operated with compressed air. The plot size was 6 plants, the number of replications per test variant was 2. The activity against spider mites was determined 4, 14 and 21 days (compound of the formula (I)) and 4, 11 and 18 days (cis-cyhalothrin) after the treatment by counting the live animals/leaf (10 leaves/plot) and calculating the efficacy using Abbott's formula.

Tetranychus urticae [3] = experiment: Example B: field spray test against spider mites on hops; details: 2200 l/ha, sprayed once
Protocol: Pest: Tetranycus Urticae Crop: Hops The compound of the formula (I) (240SC) was tested at a concentration of 0.0144% a.i. in comparison with the standard Amitraz (200 EC) at 0.05% a.i. The mixture was sprayed once. The spray mixture (2200 l/ha) was applied using a trailed machine operated by a tractor. The plot size was 60 plants, and 2 replications were carried out per test variant. The activity against spider mites was determined 5, 12, 19 and 34 days after the treatment by counting the live animals/leaf (60 leaves/plot) and calculating the efficacy using Abbott's formula.

`CCC(C)(C)C(=O)OC1=C(c2ccc(Cl)cc2Cl)C(=O)OC12CCCCC2` [Compound of the formula (I) (240 SC), 2,2-Dimethyl-3-(2,4-dichlorophenyl)-2-oxo-1-oxaspiro[4.5]dec-3-en-yl butanoate] was tested, and the “Efficacy in Abbot %” value (Eotetranychus hicoriae; 6 DAA (days after application)) was 100%, the “Efficacy in Abbot %” value (Eotetranychus hicoriae; 13 DAA) was 80% and the “Efficacy in Henderson&Tilton % against NYMPHS” value (Tetranychus urticae [1]; 1 WAA) was 100%. The “Efficacy in Henderson&Tilton % against EGGS” value (Tetranychus urticae [1]; 1 WAA (one week after application)) was 100%, the “Efficacy in Henderson&Tilton % against EGGS” value (Tetranychus urticae [1]; 2 WAA) was 100% and the “Efficacy in Henderson&Tilton % against NYMPHS” value (Tetranychus urticae [1]; 2 WAA) was 100%. For the same compound, the “Efficacy in Henderson&Tilton % against EGGS” value (Tetranychus urticae [1]; 6 WAA) was 64%, the “Efficacy in Henderson&Tilton % against NYMPHS” value (Tetranychus urticae [1]; 6 WAA) was 83% and the “Efficacy in % Abbott” value (Tetranychus urticae [2]; 0.0048% a.i., applied at early stage of infestation, 4 days after treatment) was 90%. For the same compound, the “Efficacy in % Abbott” value (Tetranychus urticae [2]; 0.0048% a.i., applied at early stage of infestation, 14 days after treatment) was 94%, the “Efficacy in % Abbott” value (Tetranychus urticae [2]; 0.0048% a.i., applied at early stage of infestation, 21 days after treatment) was 93% and the “Efficacy in % Abbott” value (Tetranychus urticae [3]; 0.0144% a.i., 5 days after treatment) was 89.7%. The “Efficacy in % Abbott” value (Tetranychus urticae [3]; 0.0144% a.i., 12 days after treatment) was 98.1% and the “Efficacy in % Abbott” value (Tetranychus urticae [3]; 0.0144% a.i., 19 days after treatment) was 99.6%.
For `CC1(C)C(/C=C(\Cl)C(F)(F)F)C1C(=O)OC(C#N)c1cccc(Oc2ccccc2)c1` (stereo not drawn) [Cis-cyhalothrin (050 EC), cis-cyhalothrin, reference compound], the “Efficacy in % Abbott” value (Tetranychus urticae [2]; 0.005% a.i., applied at high level of infestation, 4 days after treatment) was 59%, the “Efficacy in % Abbott” value (Tetranychus urticae [2]; 0.005% a.i., applied at high level of infestation, 11 days after treatment) was 57% and the “Efficacy in % Abbott” value (Tetranychus urticae [2]; 0.005% a.i., applied at high level of infestation, 18 days after treatment) was 0%.
For `Cc1ccc(/N=C/N(C)/C=N/c2ccc(C)cc2C)c(C)c1` [Amitraz (200 EC), Amitraz, reference compound], the “Efficacy in % Abbott” value (Tetranychus urticae [3]; 0.05% a.i., 5 days after treatment) was 80.1%, the “Efficacy in % Abbott” value (Tetranychus urticae [3]; 0.05% a.i., 12 days after treatment) was 96.3% and the “Efficacy in % Abbott” value (Tetranychus urticae [3]; 0.05% a.i., 19 days after treatment) was 92.2%.

Reference: patent publication US8101656B2, “Use of 2,2-dimethyl-3-(2,4-dichlorophenyl)-2-oxo-1-oxaspiro[4,5]dec-3-en-4-yl butanoate for controlling acarides” (Bayer CropScience AG, priority 2003, dated 2012)
